target: T1, human capsaicin receptor (VR1) (Homo sapiens, UniProt Q8NER1); test: Capsaicin receptor binding assay ([3H]RTX competition); conditions: read-out: Ki
T1 construct: transfected with the pBK-CMV expression construct encoding the full length human capsaicin receptor; expressed in transfected cells
Description: This Example illustrates the preparation of VR1-transfected cells and membrane preparations for use in binding assays (Example 5) and functional assays (Example 6).
A cDNA encoding full length human capsaicin receptor (SEQ ID NO: 1, 2 or 3 of U.S. Pat. No. 6,482,611) was subcloned in the plasmid pBK-CMV (Stratagene, La Jolla, Calif.) for recombinant expression in mammalian cells.
Human embryonic kidney (HEK293) cells were transfected with the pBK-CMV expression construct encoding the full length human capsaicin receptor using standard methods. The transfected cells were selected for two weeks in media containing G418 ([…]) to obtain a pool of stably transfected cells. Independent clones were isolated from this pool by limiting dilution to obtain clonal stable cell lines for use in subsequent experiments.
For radioligand binding experiments, cells were seeded in T175 cell culture flasks in media without antibiotics and grown to approximately 90% confluency. The flasks were then washed with PBS and harvested in PBS containing 5 mM EDTA. The cells were pelleted by gentle centrifugation and stored at −80° C. until assayed.
Previously frozen cells were disrupted with the aid of a tissue homogenizer in ice-cold HEPES homogenization buffer (5mM KCl 5, 5.8 mM NaCl, 0.75 mM CaCl2, 2 mM MgCl2, 320 mM sucrose, and 10 mM HEPES pH 7.4). Tissue homogenates were first centrifuged for 10 minutes at 1000×g (4° C.) to remove the nuclear fraction and debris, and then the supernatant from the first centrifugation is further centrifuged for 30 minutes at 35,000×g (4° C.) to obtain a partially purified membrane fraction. Membranes were resuspended in the HEPES homogenization buffer prior to the assay. An aliquot of this membrane homogenate is used to determine protein concentration via the Bradford method (BIO-RAD Protein Assay Kit, #500-0001, BIO-RAD, Hercules, Calif.).
This Example illustrates a representative assay of capsaicin receptor binding that may be used to determine the binding affinity of compounds for the capsaicin (VR1) receptor.
Binding studies with [^3H] Resiniferatoxin (RTX) are carried out essentially as described by Szallasi and Blumberg (1992) J. Pharmacol. Exp. Ter. 262: 883-888. In this protocol, non-specific RTX binding is reduced by adding bovine alpha, acid glycoprotein (100 μg per tube) after the binding reaction has been terminated.
[^3H] RTX (37 Ci/mmol) is synthesized by and obtained from the Chemical Synthesis and Analysis Laboratory, National Cancer Institute-Frederick Cancer Research and Development Center, Frederick, Md. [^3H] RTX may also be obtained from commercial vendors (e.g., Amersham Pharmacia Biotech, Inc.; Piscataway, N.J.).
The membrane homogenate of Example 4 is centrifuged as before and resuspended to a protein concentration of 333 μg/ml in homogenization buffer. Binding assay mixtures are set up on ice and contain [^3H]JRTX (specific activity 2200 mCi/ml), 2 μl non-radioactive test compound, 0.25 mg/ml bovine serum albumin (Cohn fraction V), and 5×10^4−1×10^5 VR1-transfected cells. The final volume is adjusted to 500 μl (for competition binding assays) or 1,000 μl (for saturation binding assays) with the ice-cold HEPES homogenization buffer solution (pH 7.4) described above. Non-specific binding is defined as that occurring in the presence of 1 μM non-radioactive RTX (Alexis Corp.; San Diego, Calif.). For saturation binding, [^3H]RTX is added in the concentration range of […], using 1 to 2 dilutions. Typically 11 concentration points are collected per saturation binding curve.
Competition binding assays are performed in the presence of 60 pM [^3H]RTX and various concentrations of test compound. The binding reactions are initiated by transferring the assay mixtures into a 37° C. water bath and are terminated following a 60 minute incubation period by cooling the tubes on ice.

T1 sequence (Q8NER1 whole entry): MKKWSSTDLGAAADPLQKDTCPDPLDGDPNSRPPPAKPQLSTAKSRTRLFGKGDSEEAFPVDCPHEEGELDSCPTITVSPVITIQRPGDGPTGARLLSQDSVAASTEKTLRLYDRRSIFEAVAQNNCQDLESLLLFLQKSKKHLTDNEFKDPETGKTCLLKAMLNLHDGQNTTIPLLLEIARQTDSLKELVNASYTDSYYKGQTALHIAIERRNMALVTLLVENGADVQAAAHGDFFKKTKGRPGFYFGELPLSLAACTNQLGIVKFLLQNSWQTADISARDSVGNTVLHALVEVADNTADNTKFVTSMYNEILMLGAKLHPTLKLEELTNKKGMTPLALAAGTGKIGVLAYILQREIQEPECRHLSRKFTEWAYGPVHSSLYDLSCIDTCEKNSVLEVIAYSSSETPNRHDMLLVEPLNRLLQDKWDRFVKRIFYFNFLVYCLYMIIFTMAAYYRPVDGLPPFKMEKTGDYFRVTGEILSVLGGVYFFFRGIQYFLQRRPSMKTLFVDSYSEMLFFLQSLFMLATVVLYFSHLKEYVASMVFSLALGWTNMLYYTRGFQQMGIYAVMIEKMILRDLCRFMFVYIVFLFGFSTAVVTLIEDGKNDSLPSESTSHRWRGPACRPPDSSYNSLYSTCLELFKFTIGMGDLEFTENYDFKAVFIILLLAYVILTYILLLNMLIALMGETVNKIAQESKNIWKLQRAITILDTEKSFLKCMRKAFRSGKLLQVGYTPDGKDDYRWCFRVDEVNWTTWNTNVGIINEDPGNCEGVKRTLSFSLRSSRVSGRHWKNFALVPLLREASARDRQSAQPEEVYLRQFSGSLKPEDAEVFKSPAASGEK

SMILES | Ki
COc1ccc(NC(=O)c2ccc(-c3ccccc3F)nc2)cc1OC [Compound 232, N-(3,4-Dimethoxy-phenyl)-6-(2-fluoro-phenyl)-nicotinamide] | < 1 µM
CC(C)(C)c1ccc(NC(=O)c2ccc(-c3ncc(C(F)(F)F)cc3Cl)cc2)cc1 [Compound 402, N-(4-tert-Butyl-phenyl)-4-(3-chloro-5-trifluoromethyl-pyridin-2-yl)-benzamide] | < 1 µM
CC(C)(C)c1ccc(NC(=O)c2ccc(-c3ccccc3N)nc2)cc1 [Compound 61, 6-(2-Amino-phenyl)-N-(4-tert-butyl-phenyl)-nicotinamide] | < 1 µM
O=C(Nc1ccccc1C(F)(F)F)c1ccc(-c2ccccc2Cl)nc1 [Compound 64, 6-(2-Chloro-phenyl)-N-(2-trifluoromethyl-phenyl)-nicotinamide] | < 1 µM
CC(C)(C)c1ccc(NC(=O)c2ccc(-c3ccc(F)cc3F)nc2)cc1 [Compound 437, N-(4-tert-Butyl-phenyl)-6-(2,4-difluoro-phenyl)-nicotinamide] | < 1 µM
O=C(Nc1ccc(C(F)(F)F)cc1)c1ccc(-c2cccc(OC(F)(F)F)c2)nc1 [Compound 135, N-(4-Trifluoromethyl-phenyl)-6-(3-Trifluoromethoxy-phenyl)-nicotinamide] | < 1 µM
O=C(Nc1ccc2c(c1)CCC2)c1ccc(-c2ccccc2)nc1 [Compound 471, N-Indan-5-yl-6-phenyl-nicotinamide] | < 1 µM
CC(C)(C)c1ccc(NC(=O)c2ccc(-c3ccccc3Cl)nc2)cc1 [Compound 442, N-(4-tert-Butyl-phenyl)-6-(2-chloro-phenyl)-nicotinamide] | < 1 µM
CC(C)(C)c1ccc(NC(=O)c2ccc(-c3ncccc3NS(=O)(=O)c3ccc(F)cc3)cc2)cc1 [Compound 423, N-(4-tert-Butyl-phenyl)-4-[3-(4-fluoro-benzenesulfonylamino)-pyridin-2-yl]-benzamide] | < 1 µM
COc1cccc(NC(=O)c2ccc(-c3cccc(F)c3)nc2)c1 [Compound 126, 6-(3-Fluoro-phenyl)-N-(3-methoxy-phenyl)-nicotinamide] | < 1 µM
O=C(Nc1ccc(C(F)(F)F)cc1)c1ccc(-c2ncccc2C(F)(F)F)cc1[N+](=O)[O-] [Compound 19, 2-Nitro-N-(4-trifluoromethyl-phenyl)-4-(3-trifluoromethyl-pyridin-2-yl)-benzamide] | < 1 µM
COc1cccc(NC(=O)c2ccc(-c3ccccc3)nc2)c1 [Compound 282, N-(3-Methoxy-phenyl)-6-phenyl-nicotinamide] | < 1 µM
Cc1ccccc1-c1ccc(C(=O)Nc2ccc(C(C)(C)C)cc2)cn1 [Compound 453, N-(4-tert-Butyl-phenyl)-6-o-tolyl-nicotinamide] | < 1 µM
Cc1ccccc1-c1ccc(C(=O)Nc2ccc(C(C)C)cc2)cn1 [Compound 384, N-(4-Isopropyl-phenyl)-6-o-tolyl-nicotinamide] | < 1 µM
Cc1nc2cc(NC(=O)c3ccc(-c4cccc(OC(F)(F)F)c4)nc3)ccc2s1 [Compound 207, N-(2-Methyl-benzothiazol-5-yl)-6-(3-trifluoromethoxy-phenyl)-nicotinamide] | < 1 µM
CC(C)c1ccc(-c2ccc(C(=O)Nc3ccc(Br)c(Cl)c3)cn2)cc1 [Compound 321, N-(4-Bromo-3-chloro-phenyl)-6-(4-isopropyl-phenyl)-nicotinamide] | < 1 µM
CCc1ccc(NC(=O)c2ccc(-c3ccccc3F)nc2)cc1 [Compound 365, N-(4-Ethyl-phenyl)-6-(2-fluoro-phenyl)-nicotinamide] | < 1 µM
CC(C)(C)c1ccc(NC(=O)c2ccc(-c3ncccc3[N+](=O)[O-])cc2)cc1 [Compound 415, N-(4-tert-Butyl-phenyl)-4-(3-nitro-pyridin-2-yl)-benzamide] | < 1 µM

SMILES | Ki
CC(C)(C)c1ccc(NC(=O)c2ccc(-c3ccccn3)cc2)cc1 [Compound 430, N-(4-tert-Butyl-phenyl)-4-pyridin-2-yl-benzamide] | < 1 µM
CCOc1ccc(-c2ccc(C(=O)Nc3ccc(C(C)(C)C)cc3)cn2)c(Cl)c1 [Compound 440, N-(4-tert-Butyl-phenyl)-6-(2-chloro-4-ethoxy-phenyl)-nicotinamide] | < 1 µM
O=C(Nc1ccc(S(=O)(=O)C(F)(F)F)cc1)c1ccc(-c2ncccc2C(F)(F)F)cc1[N+](=O)[O-] [Compound 18, 2-Nitro-N-(4-trifluoromethanesulfonyl-phenyl)-4-(3-trifluoromethyl-pyridin-2-yl)-benzamide] | < 1 µM
CC(C)(C)c1ccc(NC(=O)c2ccc(-c3ccccc3[N+](=O)[O-])nc2)cc1 [Compound 446, N-(4-tert-Butyl-phenyl)-6-(2-nitro-phenyl)-nicotinamide] | < 1 µM
CC(c1ccc(NC(=O)c2ccc(-c3ncccc3Cl)cc2)cc1)C(F)(F)F (stereo not drawn) [Compound 30, 4-(3-Chloro-pyridin-2-yl)-N-[4-(2,2,2-trifluoro-1-methyl-ethyl)-phenyl]-benzamide] | < 1 µM
COc1cccc(-c2ccc(C(=O)Nc3ccc4c(c3)CCC4)cn2)c1 [Compound 463, N-Indan-5-yl-6-(3-methoxy-phenyl)-nicotinamide] | < 1 µM
O=C(Nc1ccc2c(c1)CCC2)c1ccc(-c2cccc(Cl)c2)nc1 [Compound 116, 6-(3-Chloro-phenyl)-N-indan-5-yl-nicotinamide] | < 1 µM
O=C(Nc1ccc2c(c1)OCCCO2)c1ccc(-c2ccccc2F)nc1 [Compound 218, N-(3,4-Dihydro-2H-benzo[b][1,4]dioxepin-7-yl)-6-(2-fluoro-phenyl)-nicotinamide] | < 1 µM
CC(C)(C)c1ccc(NC(=O)c2ccc(-c3cccnc3)cc2)cc1 [Compound 431, N-(4-tert-Butyl-phenyl)-4-pyridin-3-yl-benzamide] | < 1 µM
O=C(Nc1ccc(C(F)(F)F)cc1)c1ccc(-c2ncccc2[N+](=O)[O-])cc1 [Compound 36, 4-(3-Nitro-pyridin-2-yl)-N-(4-trifluoromethyl-phenyl)-benzamide] | < 1 µM
CCOc1cccc(-c2ccc(C(=O)Nc3ccc(C)c(F)c3)cn2)c1 [Compound 120, 6-(3-Ethoxyphenyl)-N-(3-fluoro-4-methyl-phenyl)-nicotinamide] | < 1 µM
CC(C)c1cccc(-c2ccc(C(=O)Nc3ccc4c(c3)CCC4)cn2)c1 [Compound 462, N-Indan-5-yl-6-(3-isopropyl-phenyl)-nicotinainide] | < 1 µM
CC(C)(C)c1ccc(NC(=O)c2ccc(-c3ncccc3C=O)cc2)cc1 [Compound 410, N-(4-tert-Butyl-phenyl)-4-(3-formyl-pyridin-2-yl)-benzamide] | < 1 µM
CC(C)(C)c1ccc(NC(=O)c2cnc(-c3ccccc3Cl)c(Cl)c2)cc1 [Compound 435, N-(4-tert-Butyl-phenyl)-5-chloro-6-(2-chloro-phenyl)-nicotinamide] | < 1 µM
COc1cccc(NC(=O)c2ccc(-c3ccc(C(C)C)cc3)nc2)c1 [Compound 147, 6-(4-Isopropyl-phenyl)-N-(3-methoxy-phenyl)-nicotinamide] | < 1 µM
CCOc1cccc(-c2ccc(C(=O)Nc3ccc(Br)c(Cl)c3)cn2)c1 [Compound 317, N-(4-Bromo-3-chloro-phenyl)-6-(3-ethoxy-phenyl)-nicotinamide] | < 1 µM
CC(C)c1ccc(NC(=O)c2ccc(-c3ncccc3Cl)cc2)cc1 [Compound 27, 4-(3-Chloro-pyridin-2-yl)-N-(4-isopropyl-phenyl)-benzamide] | < 1 µM
O=C(Nc1ccc2c(c1)OCCCO2)c1ccc(-c2cccc(F)c2)nc1 [Compound 220, N-(3,4-Dihydro-2H-benzo[b][1,4]dioxepin-7-yl)-6-(3-fluoro-phenyl)-nicotinamide] | < 1 µM

Source: patent publication US20060100245A1, “Substituted biphenyl-4-carboxylic acid arylamide analogues” (Neurogen Corporation, priority 2002, published 2006)
